Experimental data published in ChEMBL document CHEMBL1201862, “PubChem BioAssay data set” (2004).
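Exposure lasted 48 hours, with cells grown in 96-well plates and compounds tested at five concentrations. GI50 marks 50% less growth.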 The source made the active and inactive calls. Rule as the data show it: active = GI50 up to about 1.1 µM and inactive = higher.

Experiments:
Assay in all cases: NCI tumour cell line growth inhibition, 48 h
NCI-H23 = system: NCI-H23
OVCAR-3 = system: OVCAR-3
SK-MEL-5 = system: SK-MEL-5
SNB-19 = system: SNB-19
HOP-92 = system: HOP-92
786-0 = system: 786-0
MCF7 = system: MCF7
RXF 393 = system: RXF 393
UO-31 = system: UO-31
HCC 2998 = system: HCC 2998
LOX IMVI = system: LOX IMVI
NCI-H522 = system: NCI-H522
U-251 = system: U-251
SW-620 = system: SW-620
IGROV-1 = system: IGROV-1
T47D = system: T47D
SNB-75 = system: SNB-75
ACHN = system: ACHN
HT-29 = system: HT-29
Malme-3M = system: Malme-3M

| SMILES | GI50 (NCI-H23) | GI50 (OVCAR-3) | GI50 (SK-MEL-5) | GI50 (SNB-19) | GI50 (HOP-92) | GI50 (786-0) | GI50 (MCF7) | GI50 (RXF 393) | GI50 (UO-31) | GI50 (HCC 2998) | GI50 (LOX IMVI) | GI50 (NCI-H522) | GI50 (U-251) | GI50 (SW-620) | GI50 (IGROV-1) | GI50 (T47D) | GI50 (SNB-75) | GI50 (ACHN) | GI50 (HT-29) | GI50 (Malme-3M) |
| --- | --- | --- | --- | --- | --- | --- | --- | --- | --- | --- | --- | --- | --- | --- | --- | --- | --- | --- | --- | --- |
| O=C1C(c2c(O)[nH]c3ccc(Br)cc23)=Nc2ccccc21 | 12.4 µM (inactive) | 10.6 µM (inactive) | 4.01 µM (inactive) | 13.2 µM (inactive) | 16.6 µM (inactive) | 2.13 µM (inactive) | 1.76 µM (inactive) | 2.39 µM (inactive) | 2.74 µM (inactive) | 3.79 µM (inactive) | 8.55 µM (inactive) | 14.7 µM (inactive) | 12.8 µM (inactive) | 12.7 µM (inactive) | 0.562 µM (active) | 8.63 µM (inactive) | 11.2 µM (inactive) | 3.06 µM (inactive) | 4.28 µM (inactive) | 4.91 µM (inactive) |
| O=C(O)c1ccc(C(=O)c2ccccc2)c(C(=O)O)c1 | > 100 µM (inactive) | > 100 µM (inactive) | > 100 µM (inactive) | > 100 µM (inactive) | > 100 µM (inactive) | > 100 µM (inactive) | > 100 µM (inactive) | > 100 µM (inactive) | > 100 µM (inactive) | > 100 µM (inactive) | > 100 µM (inactive) | > 100 µM (inactive) | > 100 µM (inactive) | > 100 µM (inactive) | > 100 µM (inactive) | > 100 µM (inactive) | > 100 µM (inactive) | > 100 µM (inactive) | > 100 µM (inactive) | > 100 µM (inactive) |
| CCOC1OC(C)(C=C(C#N)C#N)CCC1C (stereo not given) | 29.7 µM (inactive) | 24.5 µM (inactive) | 53.8 µM (inactive) | > 57.3 µM (inactive) | 48.5 µM (inactive) | 25.9 µM (inactive) | 35.2 µM (inactive) | 53.6 µM (inactive) | 33.8 µM (inactive) | 32.1 µM (inactive) | 22.8 µM (inactive) | 15.4 µM (inactive) | 52.7 µM (inactive) | 37.2 µM (inactive) | 10.5 µM (inactive) | 44.2 µM (inactive) | 14.6 µM (inactive) | 37.5 µM (inactive) | 27.6 µM (inactive) | 43.3 µM (inactive) |
| C=CCN(c1cc(O)c2c(c(C)cn2S(=O)(=O)c2ccccc2)c1[N+](=O)[O-])S(C)(=O)=O | > 100 µM (inactive) | 65.5 µM (inactive) | 51.4 µM (inactive) | > 100 µM (inactive) | > 100 µM (inactive) | > 100 µM (inactive) | > 100 µM (inactive) | 56 µM (inactive) | > 100 µM (inactive) | > 100 µM (inactive) | 69.2 µM (inactive) | 65.9 µM (inactive) | > 100 µM (inactive) | > 100 µM (inactive) | > 100 µM (inactive) | 40.7 µM (inactive) | > 100 µM (inactive) | 81.1 µM (inactive) | > 100 µM (inactive) | > 100 µM (inactive) |
| COc1ccc(C(=O)C#Cc2cnc(OC)nc2OC)cc1 | 1.48 µM (inactive) | 1.68 µM (inactive) | 1.34 µM (inactive) | 12.2 µM (inactive) | 1.76 µM (inactive) | 1.94 µM (inactive) | 0.778 µM (active) | 1.87 µM (inactive) | 1.29 µM (inactive) | 1.84 µM (inactive) | 0.147 µM (active) | 1.39 µM (inactive) | 1.33 µM (inactive) | 0.571 µM (active) | 1.45 µM (inactive) | 1.89 µM (inactive) | 2.22 µM (inactive) | 1.5 µM (inactive) | 1.22 µM (inactive) | 1.67 µM (inactive) |
| C=C(C)C(CC=C(C)C)CC12CC(CC=C(C)C)C(C)(C)C(CC=C(C)C)(C(=O)C(Cc3ccc(O)c(O)c3)=C1O)C2=O (stereo not given) | > 100 µM (inactive) | > 100 µM (inactive) | > 100 µM (inactive) | > 100 µM (inactive) | > 100 µM (inactive) | > 100 µM (inactive) | > 100 µM (inactive) | > 100 µM (inactive) | > 100 µM (inactive) | > 100 µM (inactive) | > 100 µM (inactive) | > 100 µM (inactive) | > 100 µM (inactive) | > 100 µM (inactive) | > 100 µM (inactive) | > 100 µM (inactive) | > 100 µM (inactive) | > 100 µM (inactive) | > 100 µM (inactive) | 57.8 µM (inactive) |
| O=C1C([P+](c2ccccc2)(c2ccccc2)c2ccccc2)=C([O-])C(=Cc2ccc(Cl)c(Cl)c2)C([O-])=C1[P+](c1ccccc1)(c1ccccc1)c1ccccc1 | 3.51 µM (inactive) | 1.99 µM (inactive) | 2.34 µM (inactive) | 3.16 µM (inactive) | 2.34 µM (inactive) | 2.14 µM (inactive) | 1.46 µM (inactive) | 1.71 µM (inactive) | 3.75 µM (inactive) | 2.93 µM (inactive) | 1.06 µM (active) | 1.8 µM (inactive) | 2.47 µM (inactive) | 2.17 µM (inactive) | 2.62 µM (inactive) | 3.37 µM (inactive) | 4.02 µM (inactive) | 2.8 µM (inactive) | 1.91 µM (inactive) | 2.34 µM (inactive) |
| Cc1cc2c(cc1C)[n+]([O-])c(C(=O)/C=C/c1ccc3c(c1)OCO3)c(C)[n+]2[O-] | 38.3 µM (inactive) | > 86.1 µM (inactive) | > 100 µM (inactive) | 27.5 µM (inactive) | 25.6 µM (inactive) | 36.6 µM (inactive) | > 100 µM (inactive) | 28.7 µM (inactive) | > 100 µM (inactive) | > 78.5 µM (inactive) | 36.7 µM (inactive) | 27.6 µM (inactive) | 25.4 µM (inactive) | > 100 µM (inactive) | 48.4 µM (inactive) | > 86.1 µM (inactive) | 19.7 µM (inactive) | 40.9 µM (inactive) | > 100 µM (inactive) | 73.1 µM (inactive) |
| Nc1cc2c3c(cccc3c1)NC2=O | 79.8 µM (inactive) | > 100 µM (inactive) | 92.3 µM (inactive) | 84.9 µM (inactive) | > 100 µM (inactive) | > 100 µM (inactive) | 27.9 µM (inactive) | > 100 µM (inactive) | 21.2 µM (inactive) | > 100 µM (inactive) | 51.4 µM (inactive) | 3.64 µM (inactive) | 31.8 µM (inactive) | 82.4 µM (inactive) | > 100 µM (inactive) | 28 µM (inactive) | 14.6 µM (inactive) | 25.1 µM (inactive) | > 100 µM (inactive) | > 100 µM (inactive) |
| Cc1ccc(-c2nc(N/N=C/C=C/c3ccccc3)c3ccccc3n2)cc1 | 44.1 µM (inactive) | 31.6 µM (inactive) | 14.8 µM (inactive) | 37.6 µM (inactive) | 31.3 µM (inactive) | 30 µM (inactive) | 14 µM (inactive) | 26.2 µM (inactive) | 83.6 µM (inactive) | 28.4 µM (inactive) | 48.6 µM (inactive) | 21.3 µM (inactive) | 33.3 µM (inactive) | 29.1 µM (inactive) | 19.2 µM (inactive) | 60.5 µM (inactive) | 33.6 µM (inactive) | 19.1 µM (inactive) | 32.8 µM (inactive) | 30 µM (inactive) |
| N#CC(C#N)=C1CCCCc2ccc([N+](=O)[O-])cc21 | > 100 µM (inactive) | 15.7 µM (inactive) | > 100 µM (inactive) | > 100 µM (inactive) | > 100 µM (inactive) | 17.4 µM (inactive) | 38.7 µM (inactive) | 40.6 µM (inactive) | 92.9 µM (inactive) | > 100 µM (inactive) | 76.2 µM (inactive) | 19.4 µM (inactive) | 76.2 µM (inactive) | 41.9 µM (inactive) | > 100 µM (inactive) | 46.3 µM (inactive) | > 100 µM (inactive) | 93.5 µM (inactive) | 78.9 µM (inactive) | > 100 µM (inactive) |
| CCC1(OC(=O)CN2CCN(CCO)CC2)C(=O)OCc2c1cc1n(c2=O)Cc2cc3ccccc3nc2-1 (stereo not given) | 0.167 µM (active) | 1.96 µM (inactive) | 0.281 µM (active) | 0.216 µM (active) | 1.26 µM (inactive) | 0.13 µM (active) | 0.107 µM (active) | 0.593 µM (active) | 0.169 µM (active) | 0.45 µM (active) | 0.18 µM (active) | 0.306 µM (active) | 0.143 µM (active) | 0.0991 µM (active) | 0.778 µM (active) | 0.212 µM (active) | 0.234 µM (active) | 0.0667 µM (active) | 0.931 µM (active) | 1.95 µM (inactive) |
| NC(=O)c1cccc([C@@H]2O[C@H](CO)[C@@H](O)[C@H]2O)c1 | 10.3 µM (inactive) | 18.9 µM (inactive) | 32.2 µM (inactive) | 14 µM (inactive) | 18.5 µM (inactive) | 3.72 µM (inactive) | > 37.3 µM (inactive) | 8.89 µM (inactive) | 5.35 µM (inactive) | 29.3 µM (inactive) | 36 µM (inactive) | 4.14 µM (inactive) | 11.5 µM (inactive) | 7.78 µM (inactive) | 37.8 µM (inactive) | > 35.8 µM (inactive) | 4.18 µM (inactive) | 18.2 µM (inactive) | 16.2 µM (inactive) | > 100 µM (inactive) |
| COC12c3ccccc3-c3ccccc3C1[C@@H](C(=O)O)[C@H]2C(=O)O (stereo not given in full) | > 10 µM (inactive) | > 10 µM (inactive) | > 10 µM (inactive) | > 10 µM (inactive) | > 10 µM (inactive) | > 10 µM (inactive) | > 10 µM (inactive) | > 10 µM (inactive) | > 10 µM (inactive) | > 10 µM (inactive) | > 10 µM (inactive) | > 10 µM (inactive) | > 10 µM (inactive) | > 10 µM (inactive) | > 10 µM (inactive) | > 10 µM (inactive) | > 10 µM (inactive) | > 10 µM (inactive) | > 10 µM (inactive) | > 10 µM (inactive) |
